The source of these data is patent US11369695B2, “Fat droplets in retina and optic nerve as a diagnostic marker for neurodegeneration and glaucoma in humans” (The Jackson Laboratory, priority 2016, dated 2022).

Entries after “also recorded” stand apart in the source; their conditions may differ.

Data set [1] relates to DBA/2J (D2) mice. The note with it: cited from earlier work.
The subject of data set [2] is DBA/2J (D2) mice. The note with it: cited from earlier work. The source holds these as a separate data set.
The subject of the next data set is retinal ganglion cells. As to the kind of experiment: Retinal ganglion cell analyses in NAM-treated D2 mice (data not shown). Type of data set: in vivo, mouse. The text has this:
In addition, many ocular and neurodegenerative diseases occur in the elderly due to age-dependent molecular chances that increase susceptibility to damage. […] Furthermore, axonal degeneration and somal shrinkage may represent common components in some neurodegenerative diseases. NAM prevents these changes based on the data above at least in glaucoma treatment.

For data set [3], the system named is DBA/2J (D2) mice. Briefly: Glaucomatous neurodegeneration in D2 mice at 12 months (optic nerve damage grading, soma loss, visual function, axonal transport). It is filed as in vivo, mouse. The note with it: for protection from developing glaucoma / optic nerve degeneration: NAM 550 mg/kg/d in drinking water, assessed at 12 months. How it is done:
From left, DBA/2J control—D2 mice on standard drinking water; Nicotinamide)(NAM^Lo) early start—D2 mice on standard drinking water supplemented with 550 mg/kg/day NAM from 6 months of age (pre-disease); Nicotinamide)(NAM^Lo) late start—D2 mice on standard drinking water supplemented with 550 mg/kg/day NAM from 9 months of age (during disease); Nicotinamide (NAM^Hi) early start—D2 mice on standard drinking water supplemented with 2,000 mg/kg/day NAM from 6 months of age (pre-disease); Pyruvate—D2 mice on standard drinking water supplemented with 500 mg/kg/day pyruvate from 6 months of age (pre-elevated IOP); NAM^Lo+Pyruvate—D2 mice on standard drinking water supplemented with 550 mg/kg/day NAM+500 mg/kg/day pyruvate from 6 months of age (pre-disease); D2.Wld^S—D2 mice carrying the Wld^S transgene (altered NMNAT enzyme that enhances enzymatic activity) on standard drinking water; D2.Wld^S+Nicotinamide)(NAM^Lo)—D2 mice carrying the Wld^S transgene (altered NMNAT enzyme) on standard drinking water with 550 mg/kg/day NAM from 6 months of age (pre-elevated IOP).
To determine the fate of the retinal ganglion cells following prolonged period of elevated IOP in the D2 mice, we used PPD staining of the optic nerve to reveal the extent of retinal and/or optic nerve neurodegeneration, as PPD darkly stains the axoplasm of dead/dying axons.
For this purpose, we distinguished optic nerves as having one of three levels of damage: no glaucoma, where there is <5% axon loss in the optic nerve, these nerves are indistinguishable from young controls; moderate glaucoma, with […], and evidence of darkly stained axons; or severe glaucoma, with >50% axon loss, and typically accompanied by gliosis/gliotic scarring.
We conducted this in vivo experiment using a large cohort of D2 mice. In this experiment, optic nerves were classified into three damage levels: NO (no glaucoma), MOD (moderate damage), and SEV (severe damage).
Experimental D2 mice were divided into the following groups and were given:
W=water (standard mouse water)
NAM or NAM^Lo=550 mg/kg/d NAM in drinking water
Early=early start=pre-glaucoma=6-month of age (i.e. prophylactic)
Late=late start=during glaucoma=9-month of age (when mice already have high IOP, i.e. interventional, and more relative to human glaucoma)
Mice were then assessed at 12-month for optic nerve damage, soma loss, visual function, and axonal transport (data not shown).

The next data set has as its system NAD levels. As to the kind of experiment: NAD levels in NAM-treated D2 mice. Type of data set: in vivo, mouse. The note with it: NAM 550 mg/kg/d in drinking water.
The subject of data set [4] is DBA/2J (D2) mice. Briefly: Intraocular pressure (IOP) in D2 mice. Type of data set: in vivo, mouse. The note with it: NAM in drinking water (data not shown). The text has this: Following the onset of iris disease around 6 months of age, intraocular pressure began to increase (FIG. 2). A typical “normal” IOP in a D2 mouse eye is ˜13 mmHg, which increases progressively from 6 to 12 months, to values that can typically exceed 20 mmHg. By 9 months of age, IOP was/had been elevated in the majority of the eyes of the D2 mice. IOP increases in D2 eyes were age-related and asynchronous, as well as being highly variable. In our colony, females tend to have higher/early onsets of elevated IOP (FIG. 2). […] Importantly, NAM was protective both prophylactically (starting at 6-month, early start; prior to IOP elevation in the vast majority of eyes in the colony), and as an intervention (starting at 9-month, late start; when the majority of eyes have had continuing IOP elevation). This signifies that NAM is able to both prevent neuronal injury from occurring as well as limiting neuronal injury to already insulted neurons (FIG. 6). This is important for human disease where treatment would only start once a disease has become symptomatic and thus detectable.

Data set [5] has as its system lipid droplets in DBA/2J retinas. Briefly: Lipid droplet formation in the inner retina by Oil Red O staining. Type of data set: in vivo, mouse. The note with it: 12 month of age DBA/2J mice, versus untreated. The protocol:
Lipid droplet formation in the inner retina was assessed by Oil Red O staining, which brightly stained neutral triglycerides and lipids. Following intraocular pressure elevation, lipid droplets were present within the inner retina of DBA/2J mice. At 6 months of age, the majority of retinas were negative for lipid droplets. By 9 months of age, small and dispersed lipid droplets were present in some eyes. By 12 months of age, lipid accumulation was present in the majority of eyes in retinas that had not yet developed glaucoma (no glaucoma). In eyes that had developed severe glaucoma, lipid droplets were present across the retina in the majority of eyes. GCL=ganglion cell layer (retinal ganglion cell bodies), IPL=inner plexiform layer (retinal ganglion cell dendrites and synapses). Haematoxylin (dark blue/purple) is a general marker of cell nuclei used as a counter-stain.
Lipid droplet formation was assessed in retinas from nicotinamide-treated DBA/2J mice. […] GCL=ganglion cell layer (retinal ganglion cell bodies), IPL=inner plexiform layer (retinal ganglion cell dendrites and synapses). Haematoxylin (dark blue/purple) is a general marker of cell nuclei used as a counter-stain.
Again, lipid/fat droplet formation in the inner retina was assessed by Oil Red O staining. […]
Lipid droplet formation was assessed in retinas from nicotinamide-treated DBA/2J mice.

Another data set relates to mice. As to the kind of experiment: PQQ tolerability in mice. It is filed as in vivo, mouse. How it is done: With regard to PQQ, it is tolerated at least at 2,000 mg/kg/day in mice. The neuroprotective effect provided by PQQ is about 20-2,000 mg/kg/day, about 100-1,000 mg/kg/day, or about 500 mg/kg/day in mice.

On to `CC(C)OC(=O)CCC/C=C\C[C@@H]1[C@@H](CC[C@@H](O)CCc2ccccc2)[C@H](O)C[C@@H]1O` [Latanoprost], for which the “IOP after topical administration” value with DBA/2J (D2) mice [1] is “lowers IOP”. Further, the “risk of developing neurodegeneration after topical administration” value (“risk of developing neurodegeneration” below) with DBA/2J (D2) mice [2] is recorded as “reduces the risk of developing neurodegeneration”.

As for `NC(=O)c1cccnc1` [NAM, nicotinamide], in the data set with retinal ganglion cells (data not shown), the early synapse loss result was “protects early synapse loss”; the “formation of dysfunctional mitochondria with abnormal cristae” value is on record as “inhibits the formation of dysfunctional mitochondria with abnormal cristae”; the “retinal ganglion cell dysfunction and degeneration” value is “robustly prevent retinal ganglion cell dysfunction and degeneration”. Moreover, the “age-related gene expression / molecular changes in RGCs” value with retinal ganglion cells (gene expression, data not shown) was “prevents age-related gene expression In RGCs; also recorded: prevents age-related molecular changes”. Moreover, the “axonal degeneration and somal shrinkage” value in the data set with retinal ganglion cells (glaucoma) is “prevents axonal degeneration and somal shrinkage”. Also, in the data set with retinal ganglion cells (immunostaining, data not shown), the PARP activation entry was “decreases PARP activation” and the “molecular signs of glaucoma” value is on record as “prevents molecular signs of glaucoma”. Moreover, the “protection from developing glaucoma / optic nerve degeneration” value in the data set with DBA/2J (D2) mice [3] is recorded as “protect the D2 mice from all detectable signs of glaucoma through 12 months; also recorded: robustly protected D2 mice from developing glaucoma”. Further, the “protection from developing glaucoma / optic nerve degeneration” value in the data set on DBA/2J (D2) mice [3] (listed as nicotinamide) was “protects against optic nerve degeneration”. Also, in the data set with DBA/2J (D2) mice [3] (NAM administration), the “glaucoma in the majority of the treated eyes, including PERG” value was “completely prevents glaucoma”. In addition, the “protection from glaucoma, prophylactic” value in the data set with DBA/2J (D2) mice [3] (NAM early start at 6-month, prior to IOP elevation) is on record as “protects against glaucomatous neurodegeneration prophylactically; also recorded: protective”. Besides, in the data set on DBA/2J (D2) mice [3] (NAM late start at 9-month, continuing IOP elevation), the “protection from glaucoma, as an intervention” value is reported as “protective”. The “decline of NAD levels” value with NAD levels is “prevent the decline of NAD levels”. Further, the “effect on IOP” value with DBA/2J (D2) mice [4] is “did not alter IOP”. The “lipid droplet accumulation in retinas” value in data set [5] is “completely prevented”.

Consider `O=C(O)c1cc(C(=O)O)c2c(n1)C(=O)C(=O)c1cc(C(=O)O)[nH]c1-2` [PQQ, Pyrroloquinoline Quinone], for which the tolerated dose in the data set with mice is given as ≥ 2,000 mg/kg/day.

Regarding `CC12CC3CC(C)(C1)CC(N)(C3)C2` [memantine], in the data set with DBA/2J (D2) mice [1], the “IOP after topical administration” value was “lowers IOP”. For the same compound, in the data set with DBA/2J (D2) mice [2], the “risk of developing neurodegeneration” value was “reduces the risk of developing neurodegeneration”.

`CC(C)(C)NC[C@H](O)COc1nsnc1N1CCOCC1` [timolol]: the “IOP after topical administration” value with DBA/2J (D2) mice [1] is given as “lowers IOP”. The “risk of developing neurodegeneration” value in the data set with DBA/2J (D2) mice [2] was “reduces the risk of developing neurodegeneration”.
